This is an account of results in patent publication US20060287251A1, “Combination therapy for glycaemic control” (priority 2003, published 2006).

Broadly, the IC50 is the point on the concentration scale where inhibition reaches its midpoint. Low readings indicate inhibition by little substance, high ones a need for much substance.

A value given as a limit tells only on which side of the number the result lay.

In assay [1] the target is T1, plasma DPIV activity (Rattus norvegicus, UniProt P14740).
T1 construct: from tissue; host or cells: plasma of male Wistar rats
T1 sequence (P14740 38-767 limits assumed): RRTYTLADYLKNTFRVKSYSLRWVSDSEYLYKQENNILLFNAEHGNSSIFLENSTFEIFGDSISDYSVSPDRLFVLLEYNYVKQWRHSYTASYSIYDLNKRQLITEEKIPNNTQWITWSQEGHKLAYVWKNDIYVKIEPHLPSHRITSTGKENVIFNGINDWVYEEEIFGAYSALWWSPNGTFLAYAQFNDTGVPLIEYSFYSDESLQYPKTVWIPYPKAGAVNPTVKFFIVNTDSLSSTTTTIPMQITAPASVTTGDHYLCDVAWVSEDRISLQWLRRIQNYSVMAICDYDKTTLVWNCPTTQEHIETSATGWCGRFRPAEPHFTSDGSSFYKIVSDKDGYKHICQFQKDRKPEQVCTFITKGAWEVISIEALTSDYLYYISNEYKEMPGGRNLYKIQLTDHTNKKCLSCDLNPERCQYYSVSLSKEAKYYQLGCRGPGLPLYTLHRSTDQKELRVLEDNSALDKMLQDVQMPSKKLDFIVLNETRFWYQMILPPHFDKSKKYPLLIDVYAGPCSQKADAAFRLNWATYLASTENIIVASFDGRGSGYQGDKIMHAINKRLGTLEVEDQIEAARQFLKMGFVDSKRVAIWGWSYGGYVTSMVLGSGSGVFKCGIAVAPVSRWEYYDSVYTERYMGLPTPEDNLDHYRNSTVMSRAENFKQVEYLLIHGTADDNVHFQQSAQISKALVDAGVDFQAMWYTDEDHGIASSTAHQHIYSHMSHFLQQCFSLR
The assay is described as follows: Plasma DPIV inhibiting activity after intravasal and oral administration to Wistar rats. The format is in vivo. Conditions: 100 mg/kg b.w. vs. placebo, oral and intra-vasal administration. On the procedure:
Male Wistar rats (Shoe: Wist(Sho)) with a body weight ranging between 250 and 350 g were purchased from Tierzucht Schönwalde (Schönwalde, Germany). Animals were single-caged under conventional conditions with controlled temperature (22±2° C.) on a 12/12 hours light/dark cycle (light on at 06:00 AM). Standard pelleted chow (ssniff® Soest, Germany) and tap water acidified with HCl were allowed ad libitum. After ≧one week of adaptation at the housing conditions, catheters were implanted into the carotid artery of Wistar rats under general anaesthesia (i.p. injection of 0.25 ml/kg b.w. Rompun®[2%], BayerVital, Germany and 0.5 ml/kg b.w. Ketamin 10, Atarost GmbH & Co., Twistringen, Germany). The animals were allowed to recover for one week. The catheters were flushed with heparin-saline (100 IU/ml) three times per week. In case of catheter dysfunction, a second catheter was inserted into the contra-lateral carotid artery of the respective rat. After one week of recovery from surgery, this animal was reintegrated into the study. In case of dysfunction of the second catheter, the animal was withdrawn from the study. […]
Statistical evaluations and graphics were performed with PRISM® 3.02 (GraphPad Software, Inc.). All parameters were analysed in a descriptive manner including mean and SD.

The target in assay [2] is T2, Prolidase from porcine kidney (Sus scrofa, UniProt A0A5G2QQV1).
T2 construct: Prolidase from porcine kidney (ICN Biomedicals, Eschwege, Germany); purchased ICN Biomedicals, Eschwege, Germany; host or cells: porcine kidney
T2 sequence (A0A5G2QQV1 1-463): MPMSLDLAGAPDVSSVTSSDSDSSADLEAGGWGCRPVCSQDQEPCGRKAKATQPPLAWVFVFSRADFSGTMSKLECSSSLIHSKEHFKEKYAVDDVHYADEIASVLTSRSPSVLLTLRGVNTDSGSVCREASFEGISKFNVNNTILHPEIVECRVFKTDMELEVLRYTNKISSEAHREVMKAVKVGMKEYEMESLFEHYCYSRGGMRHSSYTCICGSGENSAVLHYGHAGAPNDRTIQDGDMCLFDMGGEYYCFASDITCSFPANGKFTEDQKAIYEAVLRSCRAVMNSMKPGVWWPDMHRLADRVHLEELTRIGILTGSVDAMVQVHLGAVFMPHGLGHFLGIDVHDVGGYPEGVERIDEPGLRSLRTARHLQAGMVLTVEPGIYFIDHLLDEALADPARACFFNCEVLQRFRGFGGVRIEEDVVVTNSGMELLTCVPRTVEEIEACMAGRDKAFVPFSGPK
The assay is described as follows: Cross reacting enzymes: prolidase. As to conditions: substrate Ile-Pro-OH. The format is biochemical. On the procedure:
Glutaminyl pyrrolidine or glutaminyl thiazolidine were tested for their cross reacting potency against dipeptidyl peptidase I, prolyl oligopeptidase and prolidase.
Prolidase (EC 3.4.13.9) was first described by Bergmann & Fruton (Bergmann, M. & Fruton, J. S., 1937, J Biol. Chem. 189-202). Prolidase releases the N-terminal amino acid from Xaa-Pro dipeptides and has a pH optimum between 6 and 9. Prolidase from porcine kidney (ICN Biomedicals, Eschwege, Germany). was solved (1 mg/mL) in assay buffer (20 mM NH4(CH3COO)2, 3 mM MnCl2, pH 7.6). In order to get a fully active enzyme the solution was incubated for 60 min at room temperature. 450 μL glutaminyl pyrrolidine or glutaminyl thiazolidine in an concentration range of 5*10^−3 M-5*10^−7 M were admixed with 500 μL buffer solution (20 mM NH4(CH3COO)2, pH 7.6) and 250 μL Ile-Pro-OH (0.5 mM in the assay mixture). The assay mixture was pre-incubated at 30° C. for 5 min After pre-incubation, 75 μL Prolidase (1:10 diluted in assay buffer) were added and measurement was performed at 30° C. and λ=220 nm for 20 min using a UV/Vis photometer, UVW (Thermo Spectronic, Cambridge, UK). The IC50-values were calculated using Graphit 4.0.15 (Erithacus Software, Ltd., UK).

Regarding `NC(=O)CC[C@H](N)C(=O)N1CCCC1` [glutaminyl pyrrolidine], the “plasma DPIV activity” value in assay [1] was “inhibited plasma DPIV activity”. The same compound had an IC50 in assay [2] of 340 µM.
As to `NC(=O)CC[C@H](N)C(=O)N1CCSC1` [glutaminyl thiazolidine], the “plasma DPIV activity” value in assay [1] is “inhibited plasma DPIV activity”. Further, the IC50 in assay [2] was greater than 3000 µM.
